Measured values: patent US9187472B2 (AbbVie Inc., priority 2012, dated 2015)

Experiments:
[1] = target: NAMPT (human, recombinant, C-terminally His-tagged) (Homo sapiens, UniProt P43490); assay: Time-Resolved Fluorescence Resonance Energy Transfer (TR-FRET) Binding Assay of NAMPT; details: without substrates; 6.8 nM NAMPT, 200 nM probe, 3 hours equilibration
How it was run: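 A TR-FRET probe-displacement assay used 6.8 nM His-tagged recombinant human NAMPT, 200 nM Oregon Green 488-labelled nicotinamide-competitive probe and 1 nM Tb-anti-His antibody. Buffer was HEPES pH 7.5 with NaCl, MgCl2, DTT and glycerol, plus 2% DMSO, equilibrated 3 h at room temperature. Em520/Em495 ratios, normalized to controls, gave IC50 by four-parameter logistic fit.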

NAMPT = NAMPT (Homo sapiens, UniProt P43490); assay: TR-FRET Binding Assay of NAMPT with PRPP; details: with 200 μM PRPP and 2.5 mM ATP; 2 nM NAMPT, 2 nM probe, 16 hours equilibration
NAMPT, sequence (P43490 whole entry): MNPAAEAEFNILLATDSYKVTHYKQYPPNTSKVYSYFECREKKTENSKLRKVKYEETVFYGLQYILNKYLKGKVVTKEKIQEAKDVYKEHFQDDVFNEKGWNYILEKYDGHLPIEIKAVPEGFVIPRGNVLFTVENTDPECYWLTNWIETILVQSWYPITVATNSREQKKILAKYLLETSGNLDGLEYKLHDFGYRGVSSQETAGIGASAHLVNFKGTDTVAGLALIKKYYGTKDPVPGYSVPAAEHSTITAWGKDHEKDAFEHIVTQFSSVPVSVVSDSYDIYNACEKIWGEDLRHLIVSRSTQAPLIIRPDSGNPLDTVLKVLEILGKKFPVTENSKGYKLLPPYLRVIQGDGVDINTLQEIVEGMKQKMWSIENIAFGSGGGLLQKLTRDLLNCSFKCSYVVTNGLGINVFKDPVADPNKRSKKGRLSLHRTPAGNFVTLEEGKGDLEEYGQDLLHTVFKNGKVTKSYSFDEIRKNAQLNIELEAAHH
How it was run: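 Human NAMPT (2 nM) with 2 nM probe and 1 nM Tb-anti-His antibody, plus 200 μM PRPP and 2.5 mM ATP, 2% DMSO. TR-FRET read after 16 h equilibration, permitting possible enzymatic modification of test compounds; data processing as for the substrate-free format.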

PC3 cells = assay: NAMPT Cell Proliferation Assay; format: cell-based; details: Homo sapiens, PC-3, 120 h, 5 days incubation, cell viability by Cell Titer Glo
How it was run: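 Cell Titer Glo viability after 5-day exposure (37° C, 5% CO2); PC3, 500 cells/well, RPMI + 10% heat-inactivated FBS, overnight attachment before dosing. Dose range 10 μM to 1×10^−5 μM, 10-fold steps. IC50 = sigmoidal fit of % inhibition.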

NAMPT (human, recombinant, C-terminally His-tagged), sequence (P43490 whole entry): as above

| SMILES | IC50 [1] [nM] | IC50 (NAMPT) [nM] | IC50 (PC3 cells) [nM] |
| --- | --- | --- | --- |
| O=C(NCc1ccn2ccnc2c1)c1cnc(N(C[C@H]2CCCO2)C(=O)CCc2ccno2)s1 [Example 194, N-(imidazo[1,2-a]pyridin-7-ylmethyl)-2-{[3-(1,2-oxazol-5-yl)propanoyl][(2R)-tetrahydrofuran-2-ylmethyl]amino}-1,3-thiazole-5-carboxamide] | 32.3 | 0.24 | 0.773 |
| O=C(NCc1ccn2ccnc2c1)c1cnc(N(C[C@H]2CCCO2)C(=O)CCc2cnoc2)s1 [Example 195, N-(imidazo[1,2-a]pyridin-7-ylmethyl)-2-{[3-(1,2-oxazol-4-yl)propanoyl][(2R)-tetrahydrofuran-2-ylmethyl]amino}-1,3-thiazole-5-carboxamide] | 24.7 | 0.251 | 0.966 |
| O=C(NCc1ccn2ccnc2c1)c1cnc(N(C[C@H]2CCCO2)C(=O)Cc2cscn2)s1 [Example 196, N-(imidazo[1,2-a]pyridin-7-ylmethyl)-2-{[(2R)-tetrahydrofuran-2-ylmethyl](1,3-thiazol-4-ylacetyl)amino}-1,3-thiazole-5-carboxamide] | 358 | 0.169 | 6.75 |
| Cc1cc(CC(=O)N(C[C@H]2CCCO2)c2ncc(C(=O)NCc3ccn4ccnc4c3)s2)nn1C [Example 197, 2-{[(1,5-dimethyl-1H-pyrazol-3-yl)acetyl][(2R)-tetrahydrofuran-2-ylmethyl]amino}-N-(imidazo[1,2-a]pyridin-7-ylmethyl)-1,3-thiazole-5-carboxamide] | 1570 | 0.505 | 25.4 |
| Cn1cc(CCC(=O)N(C[C@H]2CCCO2)c2ncc(C(=O)NCc3ccn4ccnc4c3)s2)cn1 [Example 198, N-(imidazo[1,2-a]pyridin-7-ylmethyl)-2-{[3-(1-methyl-1H-pyrazol-4-yl)propanoyl][(2R)-tetrahydrofuran-2-ylmethyl]amino}-1,3-thiazole-5-carboxamide] | 32.5 | 0.225 | 1.84 |
| Cc1noc(C)c1CC(=O)N(C[C@H]1CCCO1)c1ncc(C(=O)NCc2ccn3ccnc3c2)s1 [Example 199, 2-{[(3,5-dimethyl-1,2-oxazol-4-yl)acetyl][(2R)-tetrahydrofuran-2-ylmethyl]amino}-N-(imidazo[1,2-a]pyridin-7-ylmethyl)-1,3-thiazole-5-carboxamide] | 9.76 | 0.311 | 0.539 |
| O=C(NCc1ccc2nccn2c1)c1ccc(-c2cnn(CC3CCOC3)c2)s1 (stereo not drawn) [Example 200, N-(imidazo[1,2-a]pyridin-6-ylmethyl)-5-[1-(tetrahydrofuran-3-ylmethyl)-1H-pyrazol-4-yl]thiophene-2-carboxamide] | 63 | 0.482 | 5.72 |
| O=C(NCc1ccc2nccn2c1)c1ccc(-c2cnn(CC3CCOCC3)c2)s1 [Example 201, N-(imidazo[1,2-a]pyridin-6-ylmethyl)-5-[1-(tetrahydro-2H-pyran-4-ylmethyl)-1H-pyrazol-4-yl]thiophene-2-carboxamide] | 46.6 | 0.281 | 1.89 |
| Cn1cc(CC(=O)N(C[C@H]2CCCO2)c2ncc(C(=O)NCc3ccn4ccnc4c3)s2)cn1 [Example 202, N-(imidazo[1,2-a]pyridin-7-ylmethyl)-2-{[(1-methyl-1H-pyrazol-4-yl)acetyl][(2R)-tetrahydrofuran-2-ylmethyl]amino}-1,3-thiazole-5-carboxamide] | 216 | 0.355 | 4.88 |
| Cn1cccc1CCC(=O)N(C[C@H]1CCCO1)c1ncc(C(=O)NCc2ccn3ccnc3c2)s1 [Example 203, N-(imidazo[1,2-a]pyridin-7-ylmethyl)-2-{[3-(1-methyl-1H-pyrrol-2-yl)propanoyl][(2R)-tetrahydrofuran-2-ylmethyl]amino}-1,3-thiazole-5-carboxamide] | 13.7 | 0.21 | 2.39 |
| CC(C)(O)Cn1cc(-c2ncc(C(=O)NCc3ccn4ccnc4c3)s2)cn1 [Example 204, 2-[1-(2-hydroxy-2-methylpropyl)-1H-pyrazol-4-yl]-N-(imidazo[1,2-a]pyridin-7-ylmethyl)-1,3-thiazole-5-carboxamide] | 4830 | 0.773 | 1620 |
| CC(C)Cn1cc(-c2ncc(C(=O)NCc3ccn4ccnc4c3)s2)cn1 [Example 205, N-(imidazo[1,2-a]pyridin-7-ylmethyl)-2-[1-(2-methylpropyl)-1H-pyrazol-4-yl]-1,3-thiazole-5-carboxamide] | 1060 | 0.358 | 483 |
| O=C(NCc1ccc2nccn2c1)c1ccc(-c2cnn(CC3CCCOC3)c2)s1 (stereo not drawn) [Example 206, N-(imidazo[1,2-a]pyridin-6-ylmethyl)-5-[1-(tetrahydro-2H-pyran-3-ylmethyl)-1H-pyrazol-4-yl]thiophene-2-carboxamide] | 25.7 | 0.263 | 1.31 |
| CC(C)(C)OC(=O)Nc1ccc(C(=O)NCc2ccn3ccnc3c2)cc1 [Example 207, tert-butyl {4-[(imidazo[1,2-a]pyridin-7-ylmethyl)carbamoyl]phenyl}carbamate] | 1510 | 0.282 | 739 |
| O=C(CC1CCOCC1)Nc1ccc(C(=O)NCc2ccn3ccnc3c2)cc1 [Example 208, N-(imidazo[1,2-a]pyridin-7-ylmethyl)-4-[(tetrahydro-2H-pyran-4-ylacetyl)amino]benzamide] | 404 | 0.169 | 84.9 |
| O=C(CC1CCCO1)Nc1ccc(C(=O)NCc2ccn3ccnc3c2)cc1 (stereo not drawn) [Example 209, N-(imidazo[1,2-a]pyridin-7-ylmethyl)-4-[(tetrahydrofuran-2-ylacetyl)amino]benzamide] | 811 | 0.988 | 693 |
| O=C(CCC1CCCO1)Nc1ccc(C(=O)NCc2ccn3ccnc3c2)cc1 (stereo not drawn) [Example 210, N-(imidazo[1,2-a]pyridin-7-ylmethyl)-4-{[3-(tetrahydrofuran-2-yl)propanoyl]amino}benzamide] | 469 | 0.363 | 398 |
| CC(C)OCC(=O)Nc1ccc(C(=O)NCc2ccn3ccnc3c2)cc1 [Example 211, N-(imidazo[1,2-a]pyridin-7-ylmethyl)-4-{[(propan-2-yloxy)acetyl]amino}benzamide] | 1660 | 0.453 | 950 |
| O=C(CCC1CCCC1)Nc1ccc(C(=O)NCc2ccn3ccnc3c2)cc1 [Example 212, 4-[(3-cyclopentylpropanoyl)amino]-N-(imidazo[1,2-a]pyridin-7-ylmethyl)benzamide] | 44.8 | 0.21 | 34.1 |
| CC(C)CCC(=O)Nc1ccc(C(=O)NCc2ccn3ccnc3c2)cc1 [Example 213, N-(imidazo[1,2-a]pyridin-7-ylmethyl)-4-[(4-methylpentanoyl)amino]benzamide] | 116 | 0.271 | 39.7 |
| O=C(CC1CCOC1)Nc1ccc(C(=O)NCc2ccn3ccnc3c2)cc1 (stereo not drawn) [Example 214, N-(imidazo[1,2-a]pyridin-7-ylmethyl)-4-[(tetrahydrofuran-3-ylacetyl)amino]benzamide] | 641 | 1.28 | 289 |
| N#Cc1ccc(CN(C(=O)CC2CCCC2)c2ccc(C(=O)NCc3ccc4nccn4c3)cc2)cc1 [Example 215, 4-[(4-cyanobenzyl)(cyclopentylacetyl)amino]-N-(imidazo[1,2-a]pyridin-6-ylmethyl)benzamide] | 2010 | 3.04 | 686 |
| CC(C)(C)OC(=O)N1CCC(c2ccc(NC(=O)NCc3ccn4ccnc4c3)cc2)CC1 [Example 216, tert-butyl 4-(4-{[(imidazo[1,2-a]pyridin-7-ylmethyl)carbamoyl]amino}phenyl)piperidine-1-carboxylate] | 118 | 0.19 | 6.59 |
| CC(C)(C)OC(=O)N1CCC(c2ccc(C(=O)NCc3ccn4ccnc4c3)cc2)CC1 [Example 217, tert-butyl 4-{4-[(imidazo[1,2-a]pyridin-7-ylmethyl)carbamoyl]phenyl}piperidine-1-carboxylate] | 220 | 0.2 | 3.42 |
| O=C(NCc1ccn2ccnc2c1)c1cnc(N2CC(COCc3ccccc3)OC2=O)s1 (stereo not drawn) [Example 218, 2-{5-[(benzyloxy)methyl]-2-oxo-1,3-oxazolidin-3-yl}-N-(imidazo[1,2-a]pyridin-7-ylmethyl)-1,3-thiazole-5-carboxamide] | 123 | 0.169 | 71.1 |
| O=C(NCc1ccc2nccn2c1)c1ccc(-c2cnn(CC3CCCO3)c2)s1 (stereo not drawn) [Example 219, N-(imidazo[1,2-a]pyridin-6-ylmethyl)-5-[1-(tetrahydrofuran-2-ylmethyl)-1H-pyrazol-4-yl]thiophene-2-carboxamide] | 79.4 | 0.903 | 5.59 |
| O=C(NCc1ccn2ccnc2c1)Nc1ccc(C2CCN(C(=O)C3CCCO3)CC2)cc1 (stereo not drawn) [Example 220, 1-(imidazo[1,2-a]pyridin-7-ylmethyl)-3-{4-[1-(tetrahydrofuran-2-ylcarbonyl)piperidin-4-yl]phenyl}urea] | 74.2 | 0.278 | 5.73 |
